± gives the expanded uncertainty stated by the source.
Settings: Liquid, Closed cell (Static) method

c1ccccc1 [benzene]
vapor or sublimation pressure (303.15 K): 15.63 ± 0.6 kPa | vapor or sublimation pressure (313.15 K): 24.45 ± 0.6 kPa | vapor or sublimation pressure (323.15 K): 36.6 ± 0.75 kPa | vapor or sublimation pressure (333.15 K): 53.12 ± 1.1 kPa | vapor or sublimation pressure (343.15 K): 74.82 ± 1.5 kPa

c1ccsc1 [thiophene]
vapor or sublimation pressure (303.15 K): 13.29 ± 0.6 kPa | vapor or sublimation pressure (308.15 K): 16.61 ± 0.6 kPa | vapor or sublimation pressure (313.15 K): 20.59 ± 0.6 kPa | vapor or sublimation pressure (318.15 K): 25.31 ± 0.6 kPa | vapor or sublimation pressure (323.15 K): 30.87 ± 0.64 kPa | vapor or sublimation pressure (328.15 K): 37.4 ± 0.77 kPa | vapor or sublimation pressure (333.15 K): 44.98 ± 0.92 kPa

Cc1ccccc1 [toluene]
vapor or sublimation pressure (323.16 K): 12.29 ± 0.6 kPa | vapor or sublimation pressure (325.16 K): 13.37 ± 0.6 kPa | vapor or sublimation pressure (327.15 K): 14.53 ± 0.6 kPa | vapor or sublimation pressure (329.15 K): 15.77 ± 0.6 kPa | vapor or sublimation pressure (332.15 K): 17.8 ± 0.6 kPa | vapor or sublimation pressure (334.25 K): 19.35 ± 0.6 kPa | vapor or sublimation pressure (337.65 K): 22.08 ± 0.6 kPa | vapor or sublimation pressure (339.65 K): 23.83 ± 0.6 kPa | vapor or sublimation pressure (342.3 K): 26.32 ± 0.6 kPa | vapor or sublimation pressure (342.45 K): 26.47 ± 0.6 kPa

O [water]
vapor or sublimation pressure (322.13 K): 11.12 ± 0.6 kPa | vapor or sublimation pressure (329.07 K): 16.75 ± 0.6 kPa | vapor or sublimation pressure (337.68 K): 24.18 ± 0.6 kPa | vapor or sublimation pressure (341.81 K): 29.68 ± 0.61 kPa | vapor or sublimation pressure (347.45 K): 37.91 ± 0.78 kPa | vapor or sublimation pressure (350.9 K): 43.56 ± 0.89 kPa | vapor or sublimation pressure (355.11 K): 51.68 ± 1.1 kPa | vapor or sublimation pressure (358.38 K): 58.49 ± 1.2 kPa

From the NIST ThermoML archive (doi:10.1021/acs.jced.5b00760)
